Assays:
[1] = Cytotoxicity against human HFF-1 cells assessed as cell growth inhibition at 10 uM by MTT assay relative to control; assay type: cell-based; details: read-out: GI
[2] = system: TK-10; assay: cells; assay type: functional; details: Homo sapiens, time 48 hrs
Description: Growth inhibition of human TK-10 cells incubated for 48 hrs by sulforhodamine B assay

[3] = system: OVCAR-3; assay: cells; assay type: functional; details: Homo sapiens, time 48 hrs
Description: Growth inhibition of human OVCAR-3 cells incubated for 48 hrs by sulforhodamine B assay

[4] = system: Panel NCI-60 (60 carcinoma cell lines); assay: cells; assay type: functional; details: Homo sapiens, time 48 hrs; for CC50: read-out: LC50 (the source's name)
Description: Growth inhibition of human Panel NCI-60 (60 carcinoma cell lines) incubated for 48 hrs by sulforhodamine B assay

[5] = system: Panel leukemia (Carcinoma cell lines); assay: cells; assay type: functional; details: Homo sapiens, time 48 hrs
Description: Growth inhibition of human Panel leukemia (Carcinoma cell lines) incubated for 48 hrs by sulforhodamine B assay

[6] = system: CCRF-CEM; assay: cells; assay type: functional; details: Homo sapiens, time 48 hrs
Description: Growth inhibition of human CCRF-CEM cells incubated for 48 hrs by sulforhodamine B assay

[7] = system: A498; assay: cells; assay type: functional; details: Homo sapiens, time 48 hrs
Description: Growth inhibition of human A498 cells incubated for 48 hrs by sulforhodamine B assay

[8] = system: Panel colon (Carcinoma cell lines); assay: cells; assay type: functional; details: Homo sapiens, time 48 hrs; for CC50: read-out: LC50 (the source's name)
Description: Growth inhibition of human Panel colon (Carcinoma cell lines) incubated for 48 hrs by sulforhodamine B assay

[9] = system: Hs-578T; assay: cells; assay type: functional; details: Homo sapiens, time 48 hrs
Description: Growth inhibition of human Hs-578T cells incubated for 48 hrs by sulforhodamine B assay

[10] = cells; assay type: functional; details: Homo sapiens, Non-small cell lung cancer cell line; time 48 hrs
Description: Growth inhibition of human Non-small cell lung cancer cell line incubated for 48 hrs by sulforhodamine B assay

[11] = system: NCI-H226; assay: cells; assay type: functional; details: Homo sapiens, time 48 hrs
Description: Growth inhibition of human NCI-H226 cells incubated for 48 hrs by sulforhodamine B assay

[12] = system: MCF7; assay: cells; assay type: functional; details: Homo sapiens, time 48 hrs
Description: Growth inhibition of human MCF7 cells incubated for 48 hrs by sulforhodamine B assay

[13] = system: Panel renal (Carcinoma cell lines); assay: cells; assay type: functional; details: Homo sapiens, time 48 hrs
Description: Growth inhibition of human Panel renal (Carcinoma cell lines) incubated for 48 hrs by sulforhodamine B assay

[14] = system: NCI-H322M; assay: cells; assay type: functional; details: Homo sapiens, time 48 hrs
Description: Growth inhibition of human NCI-H322M cells incubated for 48 hrs by sulforhodamine B assay

[15] = system: LOX IMVI; assay: cells; assay type: functional; details: Homo sapiens, time 48 hrs
Description: Growth inhibition of human LOX IMVI cells incubated for 48 hrs by sulforhodamine B assay

[16] = system: NCI-H23; assay: cells; assay type: functional; details: Homo sapiens, time 48 hrs
Description: Growth inhibition of human NCI-H23 cells incubated for 48 hrs by sulforhodamine B assay

[17] = Cytotoxicity against human HFF-1 cells assessed as cell growth inhibition at 0.1 uM by MTT assay relative to control; assay type: cell-based; details: read-out: GI
[18] = system: SK-MEL-28; assay: Growth inhibition of human SK-MEL-28 cells assessed as growth percentage at 10 uM measured after 48 hrs by sulforhodamine B assay relative to control; assay type: functional; details: read-out: Activity
[19] = system: HOP-62; assay: cells; assay type: functional; details: Homo sapiens, time 48 hrs
Description: Growth inhibition of human HOP-62 cells incubated for 48 hrs by sulforhodamine B assay

[20] = system: MDA-MB-468; assay: cells; assay type: functional; details: Homo sapiens, time 48 hrs
Description: Growth inhibition of human MDA-MB-468 cells incubated for 48 hrs by sulforhodamine B assay

[21] = system: PC-3; assay: cells; assay type: functional; details: Homo sapiens, time 48 hrs
Description: Growth inhibition of human PC-3 cells incubated for 48 hrs by sulforhodamine B assay

[22] = system: SNB-75; assay: cells; assay type: functional; details: Homo sapiens, time 48 hrs
Description: Growth inhibition of human SNB-75 cells incubated for 48 hrs by sulforhodamine B assay

[23] = system: OVCAR-8; assay: cells; assay type: functional; details: Homo sapiens, time 48 hrs
Description: Growth inhibition of human OVCAR-8 cells incubated for 48 hrs by sulforhodamine B assay

[24] = system: IGROV-1; assay: cells; assay type: functional; details: Homo sapiens, time 48 hrs
Description: Growth inhibition of human IGROV-1 cells incubated for 48 hrs by sulforhodamine B assay

[25] = Cytotoxicity against human HFF-1 cells assessed as cell growth inhibition at 1 uM by MTT assay relative to control; assay type: cell-based; details: read-out: GI
[26] = system: A549; assay: cells; assay type: functional; details: Homo sapiens, time 48 hrs
Description: Growth inhibition of human A549/ATCC cells incubated for 48 hrs by sulforhodamine B assay

[27] = system: HOP-92; assay: cells; assay type: functional; details: Homo sapiens, time 48 hrs
Description: Growth inhibition of human HOP-92 cells incubated for 48 hrs by sulforhodamine B assay

[28] = system: NCI-H460; assay: cells; assay type: functional; details: Homo sapiens, time 48 hrs
Description: Growth inhibition of human NCI-H460 cells incubated for 48 hrs by sulforhodamine B assay

[29] = system: SF-295; assay: cells; assay type: functional; details: Homo sapiens, time 48 hrs
Description: Growth inhibition of human SF-295 cells incubated for 48 hrs by sulforhodamine B assay

[30] = system: OVCAR-4; assay: cells; assay type: functional; details: Homo sapiens, time 48 hrs
Description: Growth inhibition of human OVCAR-4 cells incubated for 48 hrs by sulforhodamine B assay

[31] = Cytotoxicity against human HFF-1 cells assessed as cell growth inhibition by MTT assay; assay type: cell-based
[32] = system: U-251; assay: cells; assay type: functional; details: Homo sapiens, time 48 hrs
Description: Growth inhibition of human U-251 cells incubated for 48 hrs by sulforhodamine B assay

[33] = system: Panel breast (Carcinoma cell lines); assay: cells; assay type: functional; details: Homo sapiens, time 48 hrs; for CC50: read-out: LC50 (the source's name)
Description: Growth inhibition of human Panel breast (Carcinoma cell lines) incubated for 48 hrs by sulforhodamine B assay

[34] = system: NCI-H522; assay: cells; assay type: functional; details: Homo sapiens, time 48 hrs
Description: Growth inhibition of human NCI-H522 cells incubated for 48 hrs by sulforhodamine B assay

[35] = system: KM12; assay: cells; assay type: functional; details: Homo sapiens, time 48 hrs
Description: Growth inhibition of human KM12 cells incubated for 48 hrs by sulforhodamine B assay

[36] = system: UACC-62; assay: cells; assay type: functional; details: Homo sapiens, time 48 hrs
Description: Growth inhibition of human UACC-62 cells incubated for 48 hrs by sulforhodamine B assay

[37] = system: UO-31; assay: cells; assay type: functional; details: Homo sapiens, time 48 hrs
Description: Growth inhibition of human UO-31 cells incubated for 48 hrs by sulforhodamine B assay

[38] = system: K562; assay: cells; assay type: functional; details: Homo sapiens, time 48 hrs
Description: Growth inhibition of human K562 cells incubated for 48 hrs by sulforhodamine B assay

[39] = system: Panel prostate (Carcinoma cell lines); assay: cells; assay type: functional; details: Homo sapiens, time 48 hrs
Description: Growth inhibition of human Panel prostate (Carcinoma cell lines) incubated for 48 hrs by sulforhodamine B assay

[40] = system: HT-29; assay: cells; assay type: functional; details: Homo sapiens, time 48 hrs
Description: Growth inhibition of human HT-29 cells incubated for 48 hrs by sulforhodamine B assay

[41] = system: SK-MEL-28; assay: cells; assay type: functional; details: Homo sapiens, time 48 hrs
Description: Growth inhibition of human SK-MEL-28 cells incubated for 48 hrs by sulforhodamine B assay

[42] = system: HCT-15; assay: cells; assay type: functional; details: Homo sapiens, time 48 hrs
Description: Growth inhibition of human HCT-15 cells incubated for 48 hrs by sulforhodamine B assay

[43] = system: HCT-116; assay: cells; assay type: functional; details: Homo sapiens, time 48 hrs
Description: Growth inhibition of human HCT-116 cells incubated for 48 hrs by sulforhodamine B assay

[44] = system: Panel CNS (Carcinoma cell lines); assay: cells; assay type: functional; details: Homo sapiens, time 48 hrs; for CC50: read-out: LC50 (the source's name)
Description: Growth inhibition of human Panel CNS (Carcinoma cell lines) incubated for 48 hrs by sulforhodamine B assay

[45] = system: Panel ovarian (Carcinoma cell lines); assay: cells; assay type: functional; details: Homo sapiens, time 48 hrs
Description: Growth inhibition of human Panel ovarian (Carcinoma cell lines) incubated for 48 hrs by sulforhodamine B assay

[46] = system: SR; assay: cells; assay type: functional; details: Homo sapiens, time 48 hrs
Description: Growth inhibition of human SR cells incubated for 48 hrs by sulforhodamine B assay

[47] = system: Panel melanoma (Carcinoma cell lines); assay: cells; assay type: functional; details: Homo sapiens, time 48 hrs
Description: Growth inhibition of human Panel melanoma (Carcinoma cell lines) incubated for 48 hrs by sulforhodamine B assay

[48] = system: UACC-257; assay: cells; assay type: functional; details: Homo sapiens, time 48 hrs
Description: Growth inhibition of human UACC-257 cells incubated for 48 hrs by sulforhodamine B assay

[49] = system: RXF 393; assay: cells; assay type: functional; details: Homo sapiens, time 48 hrs
Description: Growth inhibition of human RXF 393 cells incubated for 48 hrs by sulforhodamine B assay

[50] = system: MDA-MB-231; assay: cells; assay type: functional; details: Homo sapiens, time 48 hrs
Description: Growth inhibition of human MDA-MB-231/ATCC cells incubated for 48 hrs by sulforhodamine B assay

[51] = system: LOX IMVI; assay: Growth inhibition of human LOX IMVI cells assessed as growth percentage at 10 uM measured after 48 hrs by sulforhodamine B assay relative to control; assay type: functional; details: read-out: Activity
[52] = system: COLO 205; assay: Growth inhibition of human COLO 205 cells assessed as growth percentage at 10 uM measured after 48 hrs by sulforhodamine B assay relative to control; assay type: functional; details: read-out: Activity

For CN1CCN(CCCOc2cccc3nc(Nc4cccc(Cl)c4)ccc23)CC1, the inhibition at 10 µM [1] was 22.4%, the GI50 [2] was 1670 nM and the GI50 [3] was 1450 nM. For the same compound, the GI50 [4] was 1910 nM, the TGI [4] was 4170 nM and the CC50 [4] was 10700 nM. The GI50 [5] was 1990 nM, the LC50 (50% lethal concentration) [5] was 38000 nM and the TGI [5] was 4650 nM. It also gave a GI50 [6] of 1680 nM, a GI50 [7] of 1880 nM and a GI50 [8] of 1640 nM. For the same compound, the TGI [8] was 3100 nM, the CC50 [8] was 5870 nM and the GI50 [9] was 1830 nM. The GI50 [10] was 3730 nM, the LC50 (50% lethal concentration) [10] was 23900 nM and the TGI [10] was 8650 nM. The GI50 [11] was 1620 nM, the GI50 [12] was 1570 nM and the GI50 [13] was 1900 nM. It also gave an LC50 (lethal concentration 50%) [13] of 17400 nM, a TGI [13] of 5370 nM and a GI50 [14] of 2670 nM. The GI50 [15] was 1680 nM, the GI50 [16] was 2270 nM and the inhibition at 0.1 µM [17] was 5.4%. It also gave a growth at 10 µM [18] of 35.5%, a GI50 [19] of 1720 nM and a GI50 [20] of 1610 nM. For the same compound, the GI50 [21] was 1810 nM, the GI50 [22] was 1380 nM and the GI50 [23] was 1900 nM. The GI50 [24] was 2230 nM, the inhibition at 1 µM [25] was 12.2% and the GI50 [26] was 2020 nM. For the same compound, the GI50 [27] was 1650 nM, the GI50 [28] was 1870 nM and the GI50 [29] was 1910 nM. It also gave a GI50 [30] of 1940 nM, a GI50 [31] of over 10000 nM and a GI50 [32] of 1890 nM. For the same compound, the GI50 [33] was 1850 nM, the TGI [33] was 6690 nM and the CC50 [33] was 20800 nM. The GI50 [34] was 1480 nM, the GI50 [35] was 1780 nM and the GI50 [36] was 1910 nM. The GI50 [37] was 1840 nM, the GI50 [38] was 1790 nM and the GI50 [39] was 1900 nM. It also gave an LC50 (concentration killing 50% of cells) [39] of 7020 nM, a TGI [39] of 3650 nM and a GI50 [40] of 1500 nM. For the same compound, the GI50 [41] was 1650 nM, the GI50 [42] was 1580 nM and the GI50 [43] was 1550 nM. For the same compound, the GI50 [44] was 1890 nM, the TGI [44] was 4000 nM and the CC50 [44] was 23300 nM. It also gave a GI50 [45] of 2010 nM, an LC50 [45] of 11500 nM and a TGI [45] of 4310 nM. It also gave a GI50 [46] of 2200 nM, a GI50 [47] of 1760 nM and an LC50 [47] of 6450 nM. It also gave a TGI [47] of 3370 nM, a GI50 [48] of 1810 nM and a GI50 [49] of 1850 nM.
CN1CCN(CCCOc2cccc3nc(Nc4cc(Cl)cc(Cl)c4)ccc23)CC1 showed an inhibition at 10 µM [1] of 13.3%, a GI50 [2] of 1740 nM and a GI50 [3] of 1680 nM. For the same compound, the GI50 [4] was 1770 nM, the TGI [4] was 3720 nM and the CC50 [4] was 8320 nM. It also gave a GI50 [5] of 1800 nM, an LC50 (50% lethal concentration) [5] of 100000 nM and a TGI [5] of 3960 nM. For the same compound, the GI50 [6] was 1780 nM, the GI50 [7] was 1780 nM and the GI50 [8] was 1680 nM. It also gave a TGI [8] of 3190 nM, a CC50 [8] of 6100 nM and a GI50 [9] of 2500 nM. It also gave a GI50 [10] of 1710 nM, an LC50 (50% lethal concentration) [10] of 8150 nM and a TGI [10] of 3510 nM. For the same compound, the GI50 [11] was 1950 nM, the GI50 [12] was 1380 nM and the GI50 [13] was 2070 nM. The LC50 (lethal concentration 50%) [13] was 17100 nM, the TGI [13] was 5560 nM and the GI50 [14] was 1560 nM. The GI50 [15] was 1580 nM, the GI50 [16] was 1720 nM and the inhibition at 0.1 µM [17] was 12.5%. For the same compound, the GI50 [50] was 1570 nM, the GI50 [19] was 1370 nM and the GI50 [20] was 1690 nM. It also gave a GI50 [21] of 1760 nM, a GI50 [23] of 1940 nM and a GI50 [24] of 1680 nM. It also gave an inhibition at 1 µM [25] of 12%, a GI50 [26] of 1980 nM and a GI50 [27] of 1590 nM. For the same compound, the GI50 [28] was 1840 nM, the GI50 [29] was 1720 nM and the GI50 [30] was 2550 nM. It also gave a GI50 [31] of over 10000 nM, a GI50 [32] of 1720 nM and a GI50 [33] of 2060 nM. It also gave a TGI [33] of 5670 nM, a CC50 [33] of 21800 nM and a GI50 [34] of 1640 nM. The GI50 [35] was 1720 nM, the GI50 [36] was 1950 nM and the GI50 [37] was 1490 nM. The GI50 [38] was 1660 nM, the GI50 [39] was 1730 nM and the LC50 (concentration killing 50% of cells) [39] was 5960 nM. The TGI [39] was 3210 nM, the GI50 [40] was 1410 nM and the GI50 [41] was 1670 nM. It also gave a GI50 [42] of 1420 nM, a GI50 [43] of 1940 nM and a GI50 [44] of 1720 nM. The TGI [44] was 3260 nM, the CC50 [44] was 6200 nM and the GI50 [45] was 1870 nM. It also gave an LC50 [45] of 9180 nM, a TGI [45] of 4100 nM and a growth at 10 µM [51] of -5.27%. It also gave a GI50 [47] of 1800 nM, an LC50 [47] of 6620 nM and a TGI [47] of 3430 nM. The GI50 [48] was 1970 nM and the GI50 [49] was 1670 nM.
Fc1ccc(Nc2ccc3c(OCCCN4CCOCC4)cccc3n2)cc1F showed a growth at 10 µM [52] of 66.5%.
